Measurements from ChEMBL document CHEMBL5335793, “PITB: A high affinity transthyretin aggregation inhibitor with optimal pharmacokinetic properties” (Eur J Med Chem, 2023).

Columns and labels:
[1] = tested on: Transthyretin (Homo sapiens), P02766 [V50M]; assay: Stabilization of TTR V30M mutant in human plasma assessed as degree of tetramer stability at 19.1 uM incubated overnight followed by urea addition measured after 5 hrs by isoelectric focusing based densitometry relative to control; assay type: cell-free
Transthyretin [2] = target: T1, Transthyretin (Homo sapiens, UniProt P02766); assay: Stabilization of wild-type TTR (unknown origin) expressed in Escherichia coli BL21(DE3) assessed as inhibition of TTR aggregation incubated for 30 mins followed by acidification measured for 72 hrs by turbidimetry relative to control; settings: time 72.5 hrs
[3] = tested on: Transthyretin (Homo sapiens), P02766 [V50M]; assay: Potency index, ratio of Kd for Tolcapone to test compound for TTR V30M mutant (unknown origin) expressed in Escherichia coli BL21(DE3) assessed as dissociation constant by ITC analysis
MRC5 = assay: Cytotoxicity against human MRC5 cells assessed as cell viability upto 100 uM incubated for 72 hrs by PrestoBlue assay; assay type: toxicity, cell-based; settings: mrc5, 72 h
Transthyretin [4] = target: Transthyretin (Homo sapiens, UniProt P02766, V142I); assay: Binding affinity to TTR V122I mutant (unknown origin) expressed in Escherichia coli BL21(DE3) assessed as dissociation constant by ITC analysis
[5] = tested on: Transthyretin (Homo sapiens), P02766 [V50M]; assay: Binding affinity to TTR V30M mutant (unknown origin) expressed in Escherichia coli BL21(DE3) assessed as change in gibbs free energy at 100 uM by ITC analysis
Transthyretin [6] = target: T1, Transthyretin; assay: Binding affinity to wild-type TTR (unknown origin) expressed in Escherichia coli BL21(DE3) assessed as change in entropy at 100 uM by ITC analysis
[7] = Cmax in CD-1 mouse at 1 mg/kg, iv measured for 24 hrs by UPLC-MS/MS analysis; assay type: ADME, organism-based; parameters: dose 1 mg/kg, time 24 hrs, route iv; settings: in vivo
HeLa = assay: Cytotoxicity against human HeLa cells assessed as cell viability upto 100 uM incubated for 72 hrs by PrestoBlue assay; assay type: toxicity, cell-based
[8] = Cmax in CD-1 mouse at 10 mg/kg, po measured for 24 hrs by UPLC-MS/MS analysis; assay type: ADME, organism-based; parameters: dose 10 mg/kg, time 24 hrs, route po; settings: in vivo
[9] = tested on: Transthyretin (Homo sapiens), P02766 [V142I]; assay: Stabilization of TTR V122I mutant (unknown origin) expressed in Escherichia coli BL21(DE3) assessed as inhibition of TTR aggregation at 20 uM incubated for 30 mins followed by acidification measured for 72 hrs by turbidimetry relative to control; settings: time 72.5 hrs
[10] = tested on: Transthyretin (Homo sapiens), P02766 [V50M]; assay: Stabilization of TTR V30M mutant (unknown origin) expressed in Escherichia coli BL21(DE3) assessed as inhibition of TTR aggregation at 20 uM incubated for 30 mins followed by acidification measured for 72 hrs by turbidimetry relative to control; settings: time 72.5 hrs
[11] = Elimination rate constant in CD-1 mouse at 10 mg/kg, po measured for 24 hrs by UPLC-MS/MS analysis; assay type: ADME, organism-based; settings: in vivo
[12] = Clearance in CD-1 mouse at 10 mg/kg, po measured for 24 hrs by UPLC-MS/MS analysis; assay type: ADME, organism-based; settings: in vivo
Transthyretin [13] = target: T1, Transthyretin; assay: Stabilization of wild-type TTR (unknown origin) expressed in Escherichia coli BL21(DE3) assessed as reduction in urea-induced tetramer dissociation at 3.6 uM preincubated for 30 mins followed by urea addition measured for 100 hrs by fluorescence based assay relative to control; parameters: scale not given: the % may be the effect or the level left; settings: time 100.5 hrs
[14] = Half life in CD-1 mouse at 10 mg/kg, po measured for 24 hrs by UPLC-MS/MS analysis; assay type: ADME, organism-based; settings: in vivo
[15] = Elimination rate constant in CD-1 mouse at 1 mg/kg, iv measured for 24 hrs by UPLC-MS/MS analysis; assay type: ADME, organism-based; settings: in vivo
HepG2 = assay: Cytotoxicity against human HepG2 cells assessed as cell viability upto 100 uM incubated for 72 hrs by PrestoBlue assay; assay type: toxicity, cell-based; settings: hepg2, 72 h
Transthyretin [16] = target: T1, Transthyretin; assay: Binding affinity to wild-type TTR (unknown origin) expressed in Escherichia coli BL21(DE3) assessed as change in enthalpy at 100 uM by ITC analysis
[17] = tested on: Transthyretin (Homo sapiens), P02766 [V142I]; assay: Binding affinity to TTR V122I mutant (unknown origin) expressed in Escherichia coli BL21(DE3) assessed as change in gibbs free energy at 100 uM by ITC analysis
[18] = tested on: Transthyretin (Homo sapiens), P02766 [V142I]; assay: Binding affinity to TTR V122I mutant (unknown origin) expressed in Escherichia coli BL21(DE3) assessed as change in entropy at 100 uM by ITC analysis
[19] = tested on: Transthyretin (Homo sapiens), P02766 [V50M]; assay: Binding affinity to TTR V30M mutant (unknown origin) expressed in Escherichia coli BL21(DE3) assessed as change in entropy at 100 uM by ITC analysis
[20] = Volume of distribution in CD-1 mouse at 10 mg/kg, po measured for 24 hrs by UPLC-MS/MS analysis; assay type: ADME, organism-based; settings: in vivo
Transthyretin [21] = target: T1, Transthyretin; assay: Stabilization of wild-type TTR (unknown origin) expressed in Escherichia coli BL21(DE3) assessed as inhibition of TTR aggregation at 20 uM incubated for 30 mins followed by acidification measured for 72 hrs by turbidimetry relative to control; settings: time 72.5 hrs
[22] = tested on: Transthyretin (Homo sapiens), P02766 [V142I]; assay: Stabilization of TTR V122I mutant (unknown origin) expressed in Escherichia coli BL21(DE3) assessed as reduction in urea-induced tetramer dissociation at 3.6 uM preincubated for 30 mins followed by urea addition measured for 100 hrs by fluorescence based assay relative to control; parameters: scale not given: the % may be the effect or the level left; settings: time 100.5 hrs
[23] = Oral bioavailability in CD-1 mouse at 10 mg/kg measured for 24 hrs by UPLC-MS/MS analysis; assay type: ADME, organism-based; settings: in vivo
Transthyretin [24] = target: T1, Transthyretin; assay: Binding affinity to wild-type TTR (unknown origin) expressed in Escherichia coli BL21(DE3) assessed as dissociation constant by ITC analysis
[25] = Clearance in CD-1 mouse at 1 mg/kg, iv measured for 24 hrs by UPLC-MS/MS analysis; assay type: ADME, organism-based; settings: in vivo
Transthyretin [26] = target: Transthyretin (Homo sapiens, UniProt P02766, V50M); assay: Binding affinity to TTR V30M mutant (unknown origin) expressed in Escherichia coli BL21(DE3) assessed as dissociation constant by ITC analysis
[27] = Volume of distribution in CD-1 mouse at 1 mg/kg, iv measured for 24 hrs by UPLC-MS/MS analysis; assay type: ADME, organism-based; settings: in vivo
[28] = tested on: Transthyretin (Homo sapiens), P02766 [V50M]; assay: Stabilization of TTR V30M mutant (unknown origin) expressed in Escherichia coli BL21(DE3) assessed as reduction in urea-induced tetramer dissociation at 3.6 uM preincubated for 30 mins followed by urea addition measured for 100 hrs by fluorescence based assay relative to control; parameters: scale not given: the % may be the effect or the level left; settings: time 100.5 hrs
[29] = AUC (0 to 24 hrs) in CD-1 mouse at 1 mg/kg, iv by UPLC-MS/MS analysis; assay type: ADME, organism-based; parameters: time 24 hrs, dose 1 mg/kg, route iv; settings: in vivo
Transthyretin [30] = target: T1, Transthyretin; assay: Stabilization of wild-type TTR (unknown origin) expressed in Escherichia coli BL21(DE3) assessed as inhibition of TTR aggregation at 1:1 ratio of TTR:compound incubated for 30 mins followed by acidification measured for 72 hrs by turbidimetry relative to control; settings: time 72.5 hrs
Transthyretin [31] = target: T1, Transthyretin; assay: Potency index, ratio of Kd for Tolcapone to test compound for wild-type TTR (unknown origin) expressed in Escherichia coli BL21(DE3) assessed as dissociation constant by ITC analysis
[32] = tested on: Transthyretin (Homo sapiens), P02766 [V50M]; assay: Displacement of [125I]-T4 from TTR V30M mutant in human plasma incubated for 1 hr by densitometry relative to control; assay type: cell-free
Transthyretin [33] = target: T1, Transthyretin; assay: Displacement of [125I]-T4 from TTR in human plasma incubated for 1 hr by densitometry relative to control; assay type: cell-free
[34] = AUC (0 to 24 hrs) in CD-1 mouse at 10 mg/kg, po measured for 24 hrs by UPLC-MS/MS analysis; assay type: ADME, organism-based; parameters: time 24 hrs, dose 10 mg/kg, route po; settings: in vivo
[35] = tested on: Transthyretin (Homo sapiens), P02766 [V50M]; assay: Binding affinity to TTR V30M mutant (unknown origin) expressed in Escherichia coli BL21(DE3) assessed as change in enthalpy at 100 uM by ITC analysis
[36] = Half life in CD-1 mouse at 1 mg/kg, iv measured for 24 hrs by UPLC-MS/MS analysis; assay type: ADME, organism-based; settings: in vivo
[37] = tested on: Transthyretin (Homo sapiens), P02766 [V142I]; assay: Potency index, ratio of Kd for Tolcapone to test compound for TTR V122I mutant (unknown origin) expressed in Escherichia coli BL21(DE3) assessed as dissociation constant by ITC analysis
Transthyretin [38] = target: T1, Transthyretin; assay: Binding affinity to wild-type TTR (unknown origin) expressed in Escherichia coli BL21(DE3) assessed as change in gibbs free energy at 100 uM by ITC analysis
[39] = tested on: Transthyretin (Homo sapiens), P02766 [V142I]; assay: Binding affinity to TTR V122I mutant (unknown origin) expressed in Escherichia coli BL21(DE3) assessed as change in enthalpy at 100 uM by ITC analysis
[40] = Tmax in CD-1 mouse at 10 mg/kg, po measured for 24 hrs by UPLC-MS/MS analysis; assay type: ADME, organism-based; settings: in vivo

SMILES: COc1cc(C(=O)c2cc(O)cc(F)c2)cc([N+](=O)[O-])c1O
- Activity [1]: 17.4%
- inhibition (Transthyretin [2]): > 87.5%
- Ratio [3]: > 12
- Activity (MRC5): Non-Toxic
- Kd (Transthyretin [4]): 14 nM
- deltaG [5]: -10.2 kcal/mol
- -TdeltaS (Transthyretin [6]): 2.8 kcal/mol
- Cmax [7]: 4040 ng/mL
- Activity (HeLa): Non-Toxic
- Cmax [8]: 4180 ng/mL
- inhibition [9]: < 90%
- inhibition [10]: 92%
- k el at 24 h [11]: 1.92e-05 s⁻¹
- CL/F [12]: 5.13 mL/min/kg
- Activity (Transthyretin [13]): 94.1%
- half-life [14]: 10.1 h
- k el at 24 h [15]: 5.58e-05 s⁻¹
- Activity (HepG2): Non-Toxic
- deltaH (Transthyretin [16]): -13.4 kcal/mol
- deltaG [17]: -10.7 kcal/mol
- -TdeltaS [18]: 5.4 kcal/mol
- -TdeltaS [19]: 0.8 kcal/mol
- Vd [20]: 4.482 L/kg
- inhibition (Transthyretin [21]): 89.2%
- Activity [22]: 92.5%
- bioavailability [23]: 85.1%
- Kd (Transthyretin [24]): 16 nM
- clearance [25]: 5.25 mL/min/kg
- Kd (Transthyretin [26]): 36 nM
- Vd [27]: 1.57 L/kg
- Activity [28]: 79.2%
- AUC(0-t) at 24 h [29]: 3160 ng·h/mL
- inhibition (Transthyretin [30]): > 60%
- Ratio (Transthyretin [31]): > 3
- Activity [32]: 94.5%
- Activity (Transthyretin [33]): 97.3%
- AUC(0-t) at 24 h [34]: 26900 ng·h/mL
- deltaH [35]: -11 kcal/mol
- half-life [36]: 3.5 h
- Ratio [37]: > 3
- deltaG (Transthyretin [38]): -10.6 kcal/mol
- deltaH [39]: -16.1 kcal/mol
- Tmax [40]: 0.5 h
